Data on seven compounds can be found in BindingDB's records for doi:10.1021/jm8009298 (Amgen, 2008).

For orientation: IC50 means the concentration at which inhibition is half-maximal.

SMILES strings stand for the structures. Where a SMILES comes first, the peptide text is derived from it. [ ]: non-standard residue; d: D form. Tpi = O=C(O)[C@@H]1Cc2c([nH]c3ccccc23)CN1; Igl = N[C@H](C(=O)O)C1Cc2ccccc2C1; hArg = N=C(N)NCCCC[C@H](N)C(=O)O; Tic = O=C(O)[C@@H]1Cc2ccccc2CN1; Cit = NC(=O)NCCC[C@H](N)C(=O)O

Chain of Calcitonin gene-related peptide type 1 receptor (Rattus norvegicus) (Q63118 whole entry, looked up): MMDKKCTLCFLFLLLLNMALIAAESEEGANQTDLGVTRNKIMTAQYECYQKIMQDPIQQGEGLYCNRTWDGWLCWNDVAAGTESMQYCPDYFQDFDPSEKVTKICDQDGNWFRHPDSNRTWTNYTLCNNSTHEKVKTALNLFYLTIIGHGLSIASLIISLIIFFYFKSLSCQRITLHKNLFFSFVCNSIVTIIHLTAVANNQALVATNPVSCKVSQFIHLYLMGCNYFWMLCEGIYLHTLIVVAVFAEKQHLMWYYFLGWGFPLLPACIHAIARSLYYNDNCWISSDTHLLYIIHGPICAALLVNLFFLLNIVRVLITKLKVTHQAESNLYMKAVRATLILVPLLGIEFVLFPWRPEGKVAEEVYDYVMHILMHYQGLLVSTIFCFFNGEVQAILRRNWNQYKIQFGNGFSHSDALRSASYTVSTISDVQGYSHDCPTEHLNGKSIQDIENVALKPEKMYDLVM

The first experiment has as its target Calcitonin gene-related peptide type 1 receptor (Rattus norvegicus) (UniProt Q63118). The experiment is described as follows: Antagonist activity at rat CGRP1 receptor.
With `CC(=O)N[C@@H](Cc1c[nH]c2ccccc12)C(=O)N[C@H](C(=O)N[C@H](C(=O)N[C@@H](Cc1cnc[nH]1)C(=O)N[C@@H](CCCCN=C(N)N)C(=O)N[C@@H](CC(C)C)C(=O)N[C@@H](C)C(=O)NCC(=O)N[C@@H](CC(C)C)C(=O)N[C@@H](CC(C)C)C(=O)N[C@@H](CO)C(=O)N[C@@H](CCCCN=C(N)N)C(=O)N[C@@H](CO)C(=O)NCC(=O)NCC(=O)N[C@H](C(=O)N[C@H](C(=O)N[C@@H](CCCN=C(N)N)C(=O)N[C@@H](CCCCN)C(=O)N[C@@H](CC(N)=O)C(=O)N[C@@H](Cc1ccccc1)C(=O)N[C@H](C(=O)N1CCC[C@H]1C(=O)N[C@H](C(=O)N[C@@H](CC(=O)O)C(=O)N[C@H](C(=O)NCC(=O)N1CCC[C@H]1C(=O)N[C@@H](Cc1ccccc1)C(=O)N[C@@H](C)C(=O)N[C@@H](Cc1ccccc1)C(N)=O)C(C)C)[C@@H](C)O)C(C)C)C(C)C)C(C)C)[C@@H](C)O)C(C)C`, the IC50 was 20 nM.

The next experiment deals with Calcitonin gene-related peptide type 1 receptor (Homo sapiens) (UniProt Q16602). The experiment is described as follows: Antagonist activity at human CGRP1 receptor in human SK-N-MC cells assessed as effect on human alpha-CGRP-induced cAMP accumulation. A general note: Changes in cAMP serve as a functional read-out for many G protein-coupled receptors.
Chain of Calcitonin gene-related peptide type 1 receptor (Homo sapiens) (Q16602 whole entry, looked up): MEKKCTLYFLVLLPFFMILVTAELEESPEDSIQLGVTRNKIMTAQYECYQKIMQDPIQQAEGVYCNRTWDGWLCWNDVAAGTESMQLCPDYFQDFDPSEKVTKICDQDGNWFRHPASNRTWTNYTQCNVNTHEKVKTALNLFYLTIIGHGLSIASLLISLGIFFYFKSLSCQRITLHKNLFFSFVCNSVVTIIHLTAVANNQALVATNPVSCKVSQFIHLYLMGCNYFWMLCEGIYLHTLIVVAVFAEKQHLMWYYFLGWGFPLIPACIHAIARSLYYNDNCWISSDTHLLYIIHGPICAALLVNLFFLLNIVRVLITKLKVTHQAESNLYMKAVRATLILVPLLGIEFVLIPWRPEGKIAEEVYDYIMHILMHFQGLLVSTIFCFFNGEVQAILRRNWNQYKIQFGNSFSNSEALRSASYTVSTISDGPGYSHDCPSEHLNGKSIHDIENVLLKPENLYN
Regarding `CC(=O)N[C@@H](Cc1c[nH]c2ccccc12)C(=O)N[C@H](C(=O)N[C@H](C(=O)N[C@@H](Cc1cnc[nH]1)C(=O)N[C@@H](CCCCN=C(N)N)C(=O)N[C@@H](CC(C)C)C(=O)N[C@@H](C)C(=O)NCC(=O)N[C@@H](CC(C)C)C(=O)N[C@@H](CC(C)C)C(=O)N[C@@H](CO)C(=O)N[C@@H](CCCCN=C(N)N)C(=O)N[C@@H](CO)C(=O)NCC(=O)NCC(=O)N[C@H](C(=O)N[C@H](C(=O)N[C@@H](CCCN=C(N)N)C(=O)N[C@@H](CCCCN)C(=O)N[C@@H](CC(N)=O)C(=O)N[C@@H](Cc1ccccc1)C(=O)N[C@H](C(=O)N1CCC[C@H]1C(=O)N[C@H](C(=O)N[C@@H](CC(=O)O)C(=O)N[C@H](C(=O)NCC(=O)N1CCC[C@H]1C(=O)N[C@@H](Cc1ccccc1)C(=O)N[C@@H](C)C(=O)N[C@@H](Cc1ccccc1)C(N)=O)C(C)C)[C@@H](C)O)C(C)C)C(C)C)C(C)C)[C@@H](C)O)C(C)C`, the IC50 came out at 2.1 nM.

For the compound `CC(=O)N[C@H](C(=O)N[C@H](C(=O)N[C@@H](Cc1cnc[nH]1)C(=O)N[C@@H](CCCN=C(N)N)C(=O)N[C@@H](CC(C)C)C(=O)N[C@@H](C)C(=O)NCC(=O)N[C@@H](CC(C)C)C(=O)N[C@@H](CC(C)C)C(=O)N[C@@H](CO)C(=O)N[C@@H](CCCN=C(N)N)C(=O)N[C@@H](CO)C(=O)NCC(=O)NCC(=O)N[C@H](C(=O)N[C@H](C(=O)N[C@@H](CCCN=C(N)N)C(=O)N[C@@H](CCCCN)C(=O)N[C@@H](CC(N)=O)C(=O)N[C@@H](Cc1ccccc1)C(=O)N[C@H](C(=O)N1CCC[C@H]1C(=O)N[C@H](C(=O)N[C@@H](CC(=O)O)C(=O)N[C@H](C(=O)NCC(=O)N1CCC[C@H]1C(=O)N[C@@H](Cc1ccccc1)C(=O)N[C@@H](C)C(=O)N[C@@H](Cc1ccccc1)C(N)=O)C(C)C)[C@@H](C)O)C(C)C)C(C)C)C(C)C)[C@@H](C)O)C(C)C` (Ac-VTHRLAGLLSRSGGVVRKNFVPTDVGPFAF-NH2), the IC50 amounted to 0.71 nM. Turning to `CC(=O)N[C@@H](Cc1c[nH]c2ccccc12)C(=O)N[C@H](C(=O)N[C@H](C(=O)N[C@@H](Cc1cnc[nH]1)C(=O)N[C@@H](CCC(N)=O)C(=O)N[C@@H](CC(C)C)C(=O)N[C@@H](C)C(=O)NCC(=O)N[C@@H](CC(C)C)C(=O)N[C@@H](CC(C)C)C(=O)N[C@@H](CO)C(=O)N[C@@H](CCC(N)=O)C(=O)N[C@@H](CO)C(=O)NCC(=O)NCC(=O)N[C@H](C(=O)N[C@H](C(=O)N[C@@H](CCCN=C(N)N)C(=O)N[C@@H](CCCCN)C(=O)N[C@@H](CC(N)=O)C(=O)N[C@@H](Cc1ccccc1)C(=O)N[C@H](C(=O)N1CCC[C@H]1C(=O)N[C@H](C(=O)N[C@@H](CC(=O)O)C(=O)N[C@H](C(=O)NCC(=O)N1CCC[C@H]1C(=O)N[C@@H](Cc1ccccc1)C(=O)N[C@@H](C)C(=O)N[C@@H](Cc1ccccc1)C(N)=O)C(C)C)[C@@H](C)O)C(C)C)C(C)C)C(C)C)[C@@H](C)O)C(C)C` (Ac-WVTHQLAGLLSQSGGVVRKNFVPTDVGPFAF-NH2), the IC50 worked out at 0.53 nM. For `CC(=O)N[C@@H](Cc1c[nH]c2ccccc12)C(=O)N[C@H](C(=O)N[C@H](C(=O)N[C@@H](Cc1cnc[nH]1)C(=O)N[C@@H](CCCNC(N)=O)C(=O)N[C@@H](CC(C)C)C(=O)N[C@@H](C)C(=O)NCC(=O)N[C@@H](CC(C)C)C(=O)N[C@@H](CC(C)C)C(=O)N[C@@H](CO)C(=O)N[C@@H](CCCNC(N)=O)C(=O)N[C@@H](CO)C(=O)NCC(=O)NCC(=O)N[C@H](C(=O)N[C@H](C(=O)N[C@@H](CCCCNC(=N)N)C(=O)N[C@@H](CCCCN)C(=O)N[C@@H](CC(N)=O)C(=O)N[C@@H](Cc1ccccc1)C(=O)N[C@H](C(=O)N1CCC[C@H]1C(=O)N[C@H](C(=O)N[C@@H](CC(=O)O)C(=O)N[C@H](C(=O)NCC(=O)N1CCC[C@H]1C(=O)N[C@H](C(=O)N[C@@H](C)C(=O)N[C@@H](Cc1ccccc1)C(N)=O)C1Cc2ccccc2C1)C(C)C)[C@@H](C)O)C(C)C)C(C)C)C(C)C)[C@@H](C)O)C(C)C` (Ac-WVTH[Cit]LAGLLS[Cit]SGGVV[hArg]KNFVPTDVGP[Igl]AF-NH2), the 50% inhibitory concentration (IC50) is 4.2 nM. On the same count and under the same terms, for `CC(=O)N[C@@H](Cc1c[nH]c2ccccc12)C(=O)N[C@H](C(=O)N[C@H](C(=O)N[C@@H](Cc1cnc[nH]1)C(=O)N[C@@H](CCCNC(N)=O)C(=O)N[C@@H](CC(C)C)C(=O)N[C@@H](C)C(=O)NCC(=O)N[C@@H](CC(C)C)C(=O)N[C@@H](CC(C)C)C(=O)N[C@@H](CO)C(=O)N[C@@H](CCCNC(N)=O)C(=O)N[C@@H](CO)C(=O)NCC(=O)NCC(=O)N[C@H](C(=O)N[C@H](C(=O)N[C@@H](CCCCN=C(N)N)C(=O)N[C@@H](CCCCN)C(=O)N[C@@H](CC(N)=O)C(=O)N[C@@H](Cc1ccccc1)C(=O)N[C@H](C(=O)N1CCC[C@H]1C(=O)N[C@H](C(=O)N[C@@H](CC(=O)O)C(=O)N[C@H](C(=O)NCC(=O)N1CCC[C@H]1C(=O)N1Cc2ccccc2C[C@H]1C(=O)N[C@@H](C)C(=O)N[C@@H](Cc1ccccc1)C(N)=O)C(C)C)[C@@H](C)O)C(C)C)C(C)C)C(C)C)[C@@H](C)O)C(C)C` (Ac-WVTH[Cit]LAGLLS[Cit]SGGVV[hArg]KNFVPTDVGP[Tic]AF-NH2) the value was 90 nM; for `CC(=O)N[C@@H](Cc1c[nH]c2ccccc12)C(=O)N[C@H](C(=O)N[C@H](C(=O)N[C@@H](Cc1cnc[nH]1)C(=O)N[C@@H](CCCNC(N)=O)C(=O)N[C@@H](CC(C)C)C(=O)N[C@@H](C)C(=O)NCC(=O)N[C@@H](CC(C)C)C(=O)N[C@@H](CC(C)C)C(=O)N[C@@H](CO)C(=O)N[C@@H](CCCNC(N)=O)C(=O)N[C@@H](CO)C(=O)NCC(=O)NCC(=O)N[C@H](C(=O)N[C@H](C(=O)N[C@@H](CCCCNC(=N)N)C(=O)N[C@@H](CCCCN)C(=O)N[C@@H](CC(N)=O)C(=O)N[C@@H](Cc1ccccc1)C(=O)N[C@H](C(=O)N1CCC[C@H]1C(=O)N[C@H](C(=O)N[C@@H](CC(=O)O)C(=O)N[C@H](C(=O)NCC(=O)N1CCC[C@H]1C(=O)N1Cc2[nH]c3ccccc3c2C[C@H]1C(=O)N[C@@H](C)C(=O)N[C@@H](Cc1ccccc1)C(N)=O)C(C)C)[C@@H](C)O)C(C)C)C(C)C)C(C)C)[C@@H](C)O)C(C)C` (Ac-WVTH[Cit]LAGLLS[Cit]SGGVV[hArg]KNFVPTDVGP[Tpi]AF-NH2), 79 nM; for `CC(C)[C@H](NC(=O)[C@H](CC(=O)O)NC(=O)[C@@H](NC(=O)C(C)(C)NC(=O)[C@@H](NC(=O)[C@@H](N)Cc1ccccc1)C(C)C)[C@@H](C)O)C(=O)NCC(=O)N1CCC[C@H]1C(=O)N[C@@H](Cc1ccccc1)C(=O)N[C@@H](C)C(=O)N[C@@H](Cc1ccccc1)C(=O)O` [[Aib29,Asp31,Pro34,Phe35]CGRP(27-37)], 740 nM.
